{
  "source": "paper PMC4048165",
  "about": "“Reaction Kinetics for the Biocatalytic Conversion of Phenazine-1-Carboxylic Acid to 2-Hydroxyphenazine” (PLoS ONE, 2014)",
  "target": "T1, PhzO (Pseudomonas chlororaphis, UniProt E3UVD3)",
  "T1 construct": "full-length phzO (1476-bp PCR fragment, about 491 residues) in pET28a, 6-His tag, E. coli BL21, Ni-NTA purified",
  "T1 sequence (E3UVD3 1-491)": "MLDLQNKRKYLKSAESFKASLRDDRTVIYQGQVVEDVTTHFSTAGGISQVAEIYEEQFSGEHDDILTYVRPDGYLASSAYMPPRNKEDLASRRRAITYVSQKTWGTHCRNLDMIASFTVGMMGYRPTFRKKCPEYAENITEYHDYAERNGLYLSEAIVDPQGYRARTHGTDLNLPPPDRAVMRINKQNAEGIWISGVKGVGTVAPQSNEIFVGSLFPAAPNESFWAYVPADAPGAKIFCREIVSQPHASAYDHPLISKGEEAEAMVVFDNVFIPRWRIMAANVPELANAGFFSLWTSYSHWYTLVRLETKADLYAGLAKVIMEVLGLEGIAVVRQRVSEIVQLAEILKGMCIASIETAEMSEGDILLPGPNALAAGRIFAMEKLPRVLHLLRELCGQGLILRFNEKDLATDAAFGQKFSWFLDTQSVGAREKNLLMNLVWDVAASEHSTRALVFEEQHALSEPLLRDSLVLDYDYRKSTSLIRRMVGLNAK",
  "test": "HPLC detection of 2-OH-PCA and 2-OH-PHZ",
  "assay_type": "biochemical",
  "settings": "NADP(H), 1 mM Fe3+, PCA 200 mg/L, 0.1 M Tris-HCl; results call the enzyme purified, methods describe crude E. coli extract",
  "data": [
    {"smiles": "O=C(O)c1cccc2nc3ccccc3nc12", "note": "[PCA, phenazine-1-carboxylic acid]", "values": [
      {"measurement": "HPLC detection of 2-OH-PCA and 2-OH-PHZ", "value": "PhzO was sufficient to hydroxylate PCA to produce 2-OH-PHZ in the presence of NADP(H)"}
    ]}
  ]
}
